For orientation: viability, T/C means the ratio of treated to control. As usually defined, the IC50 is the concentration that inhibits the measured activity by half.

This experiment has as its system 857933-349-R-J2-PDC complex spheroids, viability. In words: Anticancer human tumor 857933-349-R-J2-PDC patient-derived colon adenocarcinoma cell line growth inhibition [GQUAD]. Particulars: for viability, T/C: stronger effect = lower value. The source says:
DNA G-quadruplex Stabilizer Agents in Combinations in Complex Spheroids
A high-throughput screen of multi-cell type tumor spheroids was designed to identify active combinations of DNA G-quadruplex stabilizer agents and targeted small molecules. Complex spheroids include a stromal component modeled by human endothelial cells (HUVEC) and fibroblasts modeled by human mesenchymal stem cells (MSCs). The concentration ranges selected for each drug and investigational agent were based upon clinically achievable concentrations if the clinical Cmax of the agent was known.
Compounds. The drugs and investigational agents: pidnarulex (CX-5461; NSC782164), APTO-253 (NSC789042), BRACO-19 (NSC847499), peposertib (NSC802822), ceralasertib (NSC780249), elimusertib (NSC800525), camonsertib (NSC841442), AZD-1390 (NSC803789), olaparib (NSC753686), talazoparib (NSC767125), ART-558 (NSC835418), sotorasib (NSC818433), MRTX-1133 (NSC836407), SN-38 (NSC673596), topotecan (NSC609699), etoposide (NSC141540), doxorubicin (NSC123127), gemcitabine (NSC613327), 5-fluorouracil (NSC19893), paclitaxel (NSC125973), vemurafenib (NSC761431), panobinostat (NSC761190), R-306465 (JNJ-16241199; NSC773264), adavosertib (NSC754352), TP-3654 (NSC805149), carboplatin (NSC241240), KSQ-4279 (NSC840948), and staurosporine (NSC755774) were obtained from the National Cancer Institute (NCI) Developmental Therapeutics Program Chemical Repository (34). The FDA-approved anticancer drug set is available from the NCI Developmental Therapeutics Program. […] The stock solutions were prepared in dimethyl sulfoxide (DMSO, Sigma-Aldrich, St. Louis, MO, cat. D2650) at 800-fold the tested concentration and stored at -70 degrees C prior to their use. All drugs and investigational agents were tested over a range starting from a high concentration at or near the clinical Cmax and decreasing in half-log increments. If the clinical Cmax for an agent had not been determined, the highest concentration tested was 10 microM.
2.3 Cell Culture. All cells were maintained in an incubator at 37 degrees C and 5% CO2 with 95% humidity. The PDC lines were cultured according to standard operating procedures established by the NCI PDMR. All PDCs were thawed and cultured in Matrigel-coated flasks prepared with a working solution of 1X Ham's F-12 nutrient mix, without supplementation (Invitrogen, cat. 11765054), 100 U/mL penicillin-streptomycin (Invitrogen, cat. 15140122), and 2.5% Matrigel (Corning Inc., cat. 354248) for the first three passages. The 857933-349-R-J2-PDC line was cultured in 6C/Colon 1B media, which includes advanced DMEM/F-12 (Thermo Fisher Scientific, cat. 12634028), 10 mM HEPES (Thermo Fisher Scientific, cat. 15630080), 1X GlutaMAX supplement (Thermo Fisher Scientific, cat. 35050061), 0.1 mg/mL primocin (InvivoGen, cat. ant-pm-2), 10% defined fetal bovine serum, heat inactivated (HyClone Laboratories Inc., cat. SH30070.03HI), 50% L-WRN conditioned media (ATCC, cat. CRL-3276), 1.25 mM N-Acetyl-L-cysteine (Sigma-Aldrich, cat. A9165), 10 mM nicotinamide (Sigma-Aldrich, cat. N0636), 1X B-27 supplement (Thermo Fisher Scientific, cat. 17504044), 1X N-2 supplement (Thermo Fisher Scientific, cat. 17502048), 10 microM Y-27632 dihydrochloride (Tocris Bioscience, cat. 1254), and 50 ng/mL human EGF recombinant protein (Thermo Fisher Scientific, cat. PHG0311). The 485176-168-R4-J1-PDC line was cultured in Panc media, which includes all 6C/Colon 1B media components plus 100 ng/mL human FGF-10 (Thermo Fisher Scientific, cat. 100-26), 500 nM SB-431542 (Selleckchem, cat. S1067), and gastrin (Tocris, cat. 3006).
[…]

The mark [1] stands for this setting: compound alone, run of 02/20/2024.

Where “and” joins values, the source holds several entries; their conditions need not be identical. Identical values can stand only once.
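Note: spheroids exposed to compounds for one week before readout.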
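Throughout, for viability, T/C: percent viability relative to vehicle DMSO wells taken as 100%.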

Take `COc1ccc([C@@H](O)c2cc(-c3ncnc4cc(N5CCOCC5)ccc34)c(F)cc2Cl)nn1`: the viability, T/C reads like this: (compound 0.0316 µM) 106% and 108% and 100%; (compound 0.1 µM) 90.5% and 103% and 89.7%; (compound 0.316 µM) 105% (2×) and 86%; (compound 1 µM) 82.6% and 98.4% and 79.4%; (compound 3.16 µM) 70.2% and 85.2% and 62%; (compound 10 µM) 56.8% and 59.8% and 48.4%. Further, the IC50 (curve of compound) was > 10000 nM and 8850 nM.

Turning to `COc1cccc2c1C(=O)c1c(O)c3c(c(O)c1C2=O)CC(O)(C(=O)CO)CC3OC1CC(N)C(O)C(C)O1` (stereo unspecified), the viability, T/C by setting is: (compound 0.0316 µM) 84.6% and 101% and 86.6%; (compound 0.1 µM) 60% and 94.5% and 51.8%; (compound 0.316 µM) 57.6% and 71.5% and 49.7%; (compound 1 µM) 43.2% and 45.9% and 44.8%; (compound 3.16 µM) 7.65% and 8.98% and 6.13%; (compound 10 µM) 0.27% and 0.59% and 0.13%. Besides, the IC50 (curve of compound) is 415 nM and 751 nM and 277 nM.

With `Cc1[nH]c2ccc(F)cc2c1-c1nc2c3cccnc3c3ncccc3c2[nH]1`, the viability, T/C (compound 0.0316 µM) is 106% [middle of 12 runs]; the viability, T/C (compound 0.1 µM) was 107% [middle of 12 runs]; the viability, T/C (compound 0.316 µM) is 103% [middle of 12 runs]; the viability, T/C (compound 1 µM) is 104% [middle of 12 runs]; the viability, T/C (compound 3.16 µM) is 92.1% [middle of 12 runs]; the viability, T/C (compound 10 µM) was 95.5% [middle of 12 runs]. Further, the IC50 under setting [1] was greater than 10000 nM and the IC50 (compound alone, run of 02/26/2024) was greater than 10000 nM.

Regarding `Cc1[nH]c2ccccc2c1CCNCc1ccc(/C=C/C(=O)NO)cc1`, the viability, T/C was 100% and 105% (2×) (compound 0.000999 µM); 102% (2×) and 105% (compound 0.00316 µM); 102% and 112% and 104% (compound 0.00999 µM); 107% and 104% and 96.4% (compound 0.0316 µM); 102% (2×) and 94.5% (compound 0.0999 µM); 53% and 66.9% and 44.9% (compound 0.316 µM). The IC50 (curve of compound) was > 316 nM and 283 nM.

Turning to `Cc1cccc(N(C)C(=O)C2C(O)CCN2c2nc(C)cc(C(F)(F)F)c2C#N)c1` (stereo unspecified), the viability, T/C (compound 0.0316 µM) was 104% and 102% and 105%; the viability, T/C (compound 0.1 µM) was 93.1% and 96.1% and 98.8%; the viability, T/C (compound 0.316 µM) is 107% and 103% and 101%; the viability, T/C (compound 1 µM) was 91.1% and 105% and 94.8%; the viability, T/C (compound 3.16 µM) was 114% and 105% and 106%; the viability, T/C (compound 10 µM) is 91.3% and 104% and 91.7%. Further, under “curve of compound”, the IC50 was greater than 10000 nM.

On to `Cc1cnc(CNC(=O)c2c(=O)c3ccc(N4CCCN(C)CC4)nc3n3c2sc2ccccc23)cn1`, for which the viability, T/C by setting is: (compound 0.0316 µM) 92.5% [middle of 12 runs]; (compound 0.1 µM) 69.2% [middle of 11 runs]; (compound 0.316 µM) 26.9% [middle of 12 runs]; (compound 1 µM) 5.05% [middle of 12 runs]; (compound 3.16 µM) 2.9% [middle of 12 runs]; (compound 10 µM) 1.41% [middle of 12 runs]. Under setting [1], the IC50 was 169 nM [middle of 10 runs].

As for `Cn1ncnc1[C@H]1c2n[nH]c(=O)c3cc(F)cc(c23)N[C@@H]1c1ccc(F)cc1`, the viability, T/C reads like this: (compound 0.000999 µM) 102% and 99.8% and 101%; (compound 0.00316 µM) 99.8% and 104% and 94%; (compound 0.00999 µM) 99.8% and 105% and 98.9%; (compound 0.0316 µM) 94.3% and 104% and 94.9%; (compound 0.0999 µM) 97.9% and 101% and 106%; (compound 0.316 µM) 96.8% and 101% and 85.9%. The 50% inhibitory concentration (IC50) (curve of compound) is greater than 316 nM.

In the case of `Nc1ccn(C2OC(CO)C(O)C2(F)F)c(=O)n1` (stereo unspecified), the viability, T/C runs as follows: (compound 0.0316 µM) 75.3% and 98.5% and 97.2%; (compound 0.1 µM) 43.2% and 80.9% and 48.4%; (compound 0.316 µM) 45.5% and 58.7% and 54.6%; (compound 1 µM) 12.3% and 22.7% and 10.3%; (compound 3.16 µM) 8.31% and 14.9% and 6.52%; (compound 10 µM) 6.59% and 14.8% and 5.26%. For the same compound, the IC50 (curve of compound) was 105 nM and 386 nM and 161 nM.

As to `O=C(c1cc(Cc2n[nH]c(=O)c3ccccc23)ccc1F)N1CCN(C(=O)C2CC2)CC1`, the viability, T/C is 99.4% and 111% and 122% (compound 0.0316 µM); 104% and 105% and 95.9% (compound 0.1 µM); 90.5% and 106% and 98.7% (compound 0.316 µM); 92.2% and 107% and 88.4% (compound 1 µM); 108% and 98.6% and 97% (compound 3.16 µM); 101% and 106% and 96% (compound 10 µM). For the same compound, for the setting “curve of compound”, the IC50 was greater than 10000 nM.

In the case of `O=c1[nH]cc(F)c(=O)[nH]1`, the viability, T/C was 105% and 101% and 108% (compound 0.0316 µM); 88% and 103% and 95.2% (compound 0.1 µM); 99.2% and 102% and 99.4% (compound 0.316 µM); 69.5% and 66.1% and 91.1% (compound 1 µM); 35.9% and 40.5% and 63.2% (compound 3.16 µM); 22.8% and 19.8% and 47.5% (compound 10 µM). Further, the IC50 (curve of compound) was 1950 nM and 2010 nM and 8270 nM.

The values above are taken from PubChem BioAssay AID2060491 (Molecular Pharmacology Branch, DTP, NCI, 2025).
